This is an account of results in PubChem BioAssay (NCI).

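Interpolation was linear, between the two tested concentrations surrounding the appropriate level; five concentrations were tested over 48 hours in 96-well plates. GI50 = concentration required for 50% inhibition of growth. TGI marks complete inhibition of growth.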

Among the test systems are OVCAR-5 ovarian; U251 CNS; NCI-H522 lung; KM12 colon; UO-31 renal; ACHN renal; MDA-MB-435; OVCAR-4 ovarian; HT29 colon; LOX IMVI melanoma.
Common to all, as to assay: NCI tumour cell line growth inhibition, 48 h

For `O=C1CCC/C=C\C[C@H]2C=C(Cl)C(=O)/C2=C/C[C@H](CCCCC(F)(F)F)OC(=O)CCC/C=C\C[C@H]2C=C(Cl)C(=O)/C2=C/C[C@H](CCCCC(F)(F)F)O1`, the GI50 in the test with OVCAR-5 ovarian is 0.34 µM; in the test with U251 CNS, 0.226 µM; in the test on NCI-H522 lung it was 0.166 µM; with KM12 colon, 0.291 µM; in the test with UO-31 renal, 0.133 µM; in the test on ACHN renal, 0.262 µM. In addition, the GI50 in the test on MDA-MB-435 was 0.147 µM; with OVCAR-4 ovarian it was 0.24 µM; in the test with HT29 colon it was 0.241 µM; with LOX IMVI melanoma it was 0.128 µM. Besides, the TGI in the test with OVCAR-5 ovarian was found to be 2.08 µM; in the test with U251 CNS, 0.772 µM; in the test with NCI-H522 lung, 0.384 µM; in the test with KM12 colon it was 1.38 µM; in the test with UO-31 renal, 0.281 µM; in the test with ACHN renal, 1.02 µM. The TGI in the test on MDA-MB-435 came to 0.307 µM; in the test on OVCAR-4 ovarian, 3.93 µM; in the test on HT29 colon it was 0.807 µM; in the test with LOX IMVI melanoma, 0.268 µM.

As to `COc1c(O)c2ccccc2c2cc(O)ccc12`, the TGI in the test on OVCAR-5 ovarian worked out at 21.7 µM; in the test with U251 CNS, 17.9 µM; with NCI-H522 lung it was 15.7 µM; with KM12 colon, 25.7 µM; in the test with UO-31 renal, 11.4 µM; in the test with ACHN renal it was 14.5 µM. The TGI in the test on MDA-MB-435 came to 2.3 µM; in the test on OVCAR-4 ovarian, 22.8 µM; with HT29 colon, 47.4 µM; with LOX IMVI melanoma it was 7.53 µM.

Consider `NC(=O)C/C=C/CC(N)=O`, for which the TGI in the test on OVCAR-5 ovarian, in the test on U251 CNS, in the test on NCI-H522 lung, in the test with KM12 colon, with UO-31 renal and with ACHN renal was greater than 100 µM each time. The TGI in the test with MDA-MB-435, in the test with OVCAR-4 ovarian, in the test on HT29 colon and in the test with LOX IMVI melanoma was greater than 100 µM throughout.

With `CCOP1(=O)OCC2OC(n3cnc4c(N)ncnc43)C(O)C2O1` (stereo not given), the TGI with OVCAR-5 ovarian, in the test on U251 CNS, in the test with NCI-H522 lung, with KM12 colon, in the test with UO-31 renal and in the test on ACHN renal was greater than 100 µM each time. Also, the TGI in the test with MDA-MB-435, with OVCAR-4 ovarian, in the test with HT29 colon and in the test with LOX IMVI melanoma was greater than 100 µM in each case.

For the molecule `CN(NC(=O)/C(=C/c1ccc(O)cc1)NC(=O)c1ccccc1)c1ccnc2cc(Cl)ccc12`, the TGI came to 50.5 µM in the test with OVCAR-5 ovarian; 28.5 µM in the test with U251 CNS; 60.7 µM in the test with NCI-H522 lung; 35.8 µM with KM12 colon; 18.6 µM in the test on UO-31 renal; 33 µM in the test on ACHN renal. The TGI came to 32.3 µM with MDA-MB-435, 33.6 µM with OVCAR-4 ovarian, 23 µM in the test with HT29 colon and 37.2 µM with LOX IMVI melanoma.

Consider `Nc1nc2nc3c(nc2c(=O)[nH]1)CN(c1ccc(C(=O)O)cc1)C3=O`, for which the TGI with OVCAR-5 ovarian, in the test with U251 CNS, in the test on NCI-H522 lung, in the test with KM12 colon, in the test on UO-31 renal and with ACHN renal was greater than 100 µM throughout. Moreover, the TGI in the test on MDA-MB-435, with OVCAR-4 ovarian, in the test on HT29 colon and in the test on LOX IMVI melanoma was greater than 100 µM throughout.

For the molecule `COc1ccc(NC(=O)c2ccc(NC3=C(Cl)C(=O)N(Cc4ccccc4)C3=O)cc2)cc1`, the GI50 in the test with OVCAR-5 ovarian was 14.8 µM; in the test on U251 CNS, 13.3 µM; in the test with NCI-H522 lung, 3.3 µM; in the test on KM12 colon it was 16.8 µM; with UO-31 renal it was 2.66 µM; in the test with ACHN renal it was 3.64 µM. In addition, the GI50 in the test on MDA-MB-435 is 5.64 µM; in the test with OVCAR-4 ovarian it was 3.01 µM; in the test with HT29 colon, 11.5 µM; in the test with LOX IMVI melanoma it was 3.06 µM. For the same molecule, the TGI in the test on OVCAR-5 ovarian stood at 28.8 µM; with U251 CNS, 30.5 µM; in the test on NCI-H522 lung it was 13.8 µM; in the test on KM12 colon it was 38.2 µM; in the test on UO-31 renal it was 11.3 µM; in the test on ACHN renal, 12.7 µM. The TGI with MDA-MB-435 was 18.3 µM; in the test on OVCAR-4 ovarian, 8.35 µM; with HT29 colon, 90.3 µM; in the test on LOX IMVI melanoma, 8.43 µM.

Take `COc1ccc(C(=O)CC2(O)C(=O)Nc3c(Cl)ccc(Cl)c32)cc1` (stereo not given): the GI50 is 5.23 µM in the test on OVCAR-5 ovarian; 2.33 µM in the test on U251 CNS; 0.406 µM with NCI-H522 lung; 0.732 µM in the test on KM12 colon; 6.65 µM with UO-31 renal; 12.6 µM with ACHN renal. Further, the GI50 in the test on MDA-MB-435 was 0.225 µM; in the test on OVCAR-4 ovarian, 11.9 µM; in the test with HT29 colon, 0.491 µM; in the test on LOX IMVI melanoma, 2.72 µM. Moreover, the TGI with OVCAR-5 ovarian was greater than 100 µM; in the test with U251 CNS, greater than 62.3 µM; in the test on NCI-H522 lung it was 3.58 µM; in the test with KM12 colon it was greater than 59.2 µM; with UO-31 renal it was greater than 100 µM; in the test on ACHN renal, greater than 100 µM. Also, the TGI in the test with MDA-MB-435 was 0.649 µM; in the test with OVCAR-4 ovarian, greater than 100 µM; with HT29 colon, greater than 57.9 µM; in the test on LOX IMVI melanoma it was greater than 100 µM.
